pIC50: −log10 of the molar value.
Experiments:
[1] = target: skeletal myofibrils (myosin ATPase); test: Skeletal Myofibril ATPase Assay; type: biochemical
How it was run: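 Skeletal myofibril ATPase measured by PK-LDH coupled NADH depletion, absorbance 340 nm read every 1.5-2 min over 45 min. Max−min rate normalized to 1% DMSO vehicle as 100%; IC50 from four-parameter logistic fit with bottom ≥0. Cardiac myofibrils used as counter-screen.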

[2] = target: T1, cardiac myofibrils (myosin ATPase); test: Cardiac Myofibril ATPase Assay (counter screen); type: biochemical; details: myofibrils 1.0 mg/mL, KCl omitted
T1 construct: frozen myofibril pellets obtained from cardiac tissue; from tissue
T1 sequence (P12883 whole entry): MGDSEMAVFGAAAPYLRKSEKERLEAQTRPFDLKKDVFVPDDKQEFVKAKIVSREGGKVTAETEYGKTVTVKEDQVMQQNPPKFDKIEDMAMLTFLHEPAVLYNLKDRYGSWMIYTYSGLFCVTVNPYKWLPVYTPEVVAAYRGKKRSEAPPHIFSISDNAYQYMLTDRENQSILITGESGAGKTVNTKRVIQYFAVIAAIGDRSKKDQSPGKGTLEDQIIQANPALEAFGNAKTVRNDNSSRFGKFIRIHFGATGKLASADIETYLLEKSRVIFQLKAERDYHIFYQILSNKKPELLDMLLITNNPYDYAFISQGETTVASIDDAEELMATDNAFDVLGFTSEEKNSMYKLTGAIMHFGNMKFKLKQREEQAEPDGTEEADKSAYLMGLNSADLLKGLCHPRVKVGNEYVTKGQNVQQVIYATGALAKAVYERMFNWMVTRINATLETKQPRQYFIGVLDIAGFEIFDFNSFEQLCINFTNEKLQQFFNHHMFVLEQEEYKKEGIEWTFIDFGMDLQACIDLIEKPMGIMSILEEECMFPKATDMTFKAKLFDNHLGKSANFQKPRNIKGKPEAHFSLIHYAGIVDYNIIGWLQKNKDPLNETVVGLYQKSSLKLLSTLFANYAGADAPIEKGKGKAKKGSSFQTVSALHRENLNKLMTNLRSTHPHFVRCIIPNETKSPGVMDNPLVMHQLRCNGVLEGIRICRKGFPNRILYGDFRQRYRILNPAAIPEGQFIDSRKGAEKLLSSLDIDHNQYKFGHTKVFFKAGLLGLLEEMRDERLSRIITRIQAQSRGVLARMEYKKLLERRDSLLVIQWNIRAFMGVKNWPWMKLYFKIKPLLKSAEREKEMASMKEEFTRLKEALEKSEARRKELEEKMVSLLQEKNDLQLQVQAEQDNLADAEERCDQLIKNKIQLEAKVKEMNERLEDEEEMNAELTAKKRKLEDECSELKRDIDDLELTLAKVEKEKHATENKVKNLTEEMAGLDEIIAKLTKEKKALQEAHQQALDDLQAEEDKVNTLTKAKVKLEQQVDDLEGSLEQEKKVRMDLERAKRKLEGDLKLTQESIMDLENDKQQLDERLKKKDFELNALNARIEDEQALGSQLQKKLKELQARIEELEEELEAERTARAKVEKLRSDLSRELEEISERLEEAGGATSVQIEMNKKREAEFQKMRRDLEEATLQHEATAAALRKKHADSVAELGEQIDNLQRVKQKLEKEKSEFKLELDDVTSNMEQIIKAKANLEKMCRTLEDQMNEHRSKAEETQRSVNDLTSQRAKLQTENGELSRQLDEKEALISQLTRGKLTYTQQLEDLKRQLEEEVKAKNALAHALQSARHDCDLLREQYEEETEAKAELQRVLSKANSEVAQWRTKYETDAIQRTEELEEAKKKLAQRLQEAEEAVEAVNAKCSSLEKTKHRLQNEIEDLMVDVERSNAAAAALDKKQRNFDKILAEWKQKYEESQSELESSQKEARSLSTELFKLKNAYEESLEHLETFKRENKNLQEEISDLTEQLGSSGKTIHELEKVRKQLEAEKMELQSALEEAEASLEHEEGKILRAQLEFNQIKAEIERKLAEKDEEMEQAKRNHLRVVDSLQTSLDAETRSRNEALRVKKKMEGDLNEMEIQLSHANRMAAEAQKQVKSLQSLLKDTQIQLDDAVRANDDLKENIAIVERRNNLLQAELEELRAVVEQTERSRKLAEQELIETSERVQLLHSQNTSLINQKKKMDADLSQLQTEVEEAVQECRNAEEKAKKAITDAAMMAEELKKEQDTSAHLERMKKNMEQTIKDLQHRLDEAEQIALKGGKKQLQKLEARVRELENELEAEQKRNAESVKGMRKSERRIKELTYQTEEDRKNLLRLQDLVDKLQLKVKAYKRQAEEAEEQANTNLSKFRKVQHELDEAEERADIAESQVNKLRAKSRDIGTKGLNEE
T1 sequence (P08590 whole entry partner): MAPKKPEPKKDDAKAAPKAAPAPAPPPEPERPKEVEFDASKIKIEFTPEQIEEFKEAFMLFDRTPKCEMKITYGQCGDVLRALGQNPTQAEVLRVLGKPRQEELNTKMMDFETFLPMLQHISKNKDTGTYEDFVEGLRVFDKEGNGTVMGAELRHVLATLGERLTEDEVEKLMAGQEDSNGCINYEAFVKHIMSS
T1 sequence (P10916 whole entry partner): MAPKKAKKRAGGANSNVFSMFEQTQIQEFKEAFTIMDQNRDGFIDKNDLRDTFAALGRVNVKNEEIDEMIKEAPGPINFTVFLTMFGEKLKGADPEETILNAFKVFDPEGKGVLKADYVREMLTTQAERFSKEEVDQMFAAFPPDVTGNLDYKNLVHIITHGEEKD
How it was run: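 Frozen cardiac myofibrils at 1.0 mg/mL final, KCl omitted, in a PK-LDH coupled ATPase assay; ADP production tracked as NADH loss by absorbance at 340 nm. Inhibition taken as reduced rate relative to vehicle controls, with IC50 derived.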

Row | Molecule | pIC50 ([1]; Table 4C) | pIC50 ([2]; Table 5C) | pIC50 ([1]; Table 4A) | pIC50 ([2]; Table 5A) | further results
1 | CCOc1ccc(-c2ccc(=O)n(CC(=O)NCc3ccccc3Cl)n2)cc1 [IIIa-1, N-(2-chlorobenzyl)-2-(3-(4-ethoxyphenyl)-6-oxopyridazin-1(6H)-yl)acetamide] | > 5.00 | < 4.00 |  |  | 
2 | CCNC(=O)Cn1nc(-c2ccc(C3CC3)nc2)ccc1=O [Compound I-12, 2-(3-(6-cyclopropylpyridin-3-yl)-6-oxopyridazin-1(6H)-yl)-N-ethylacetamide] |  |  | 4.00 to 5.00 | < 4.00 | 
3 | O=C(Cn1nc(-c2ccc(OCC(F)(F)F)cc2)ccc1=O)NCc1ccncc1Cl [II-25, N-((3-chloropyridin-4-yl)methyl)-2-(6-oxo-3-(4-(2,2,2-trifluoroethoxy)phenyl)pyridazin-1(6H)-yl)acetamide] |  |  |  |  | pIC50 ([1]; Table 4B): < 4.00; pIC50 ([2]; Table 5B): < 4.00
4 | N-cyclobutyl-2-[3-[2-(2-methylpropoxy)pyrimidin-5-yl]-6-oxopyridazin-1-yl]acetamide [Compound I-79] |  |  | < 4.00 | < 4.00 | 
5 | COc1ccc(-c2ccc(=O)n(CC(=O)NCc3cnoc3)n2)cc1 [IIIa-31, N-(isoxazol-4-ylmethyl)-2-(3-(4-methoxyphenyl)-6-oxopyridazin-1(6H)-yl)acetamide] | < 4.00 | < 4.00 |  |  | 
6 | CCNC(=O)Cn1nc(-c2ccc(OC3CC(F)(F)C3)nc2)ccc1=O [Compound I-75, 2-(3-(6-(3,3-difluorocyclobutoxy)pyridin-3-yl)-6-oxopyridazin-1(6H)-yl)-N-ethylacetamide] |  |  | 4.00 to 5.00 | < 4.00 | 
7 | O=C(Cn1nc(-c2ccc(OC(F)F)cc2)ccc1=O)NCC(F)(F)F [II-11, 2-(3-(4-(difluoromethoxy)phenyl)-6-oxopyridazin-1(6H)-yl)-N-(2,2,2-trifluoroethyl) acetamide] |  |  |  |  | pIC50 ([1]; Table 4B): 4.00 to 5.00; pIC50 ([2]; Table 5B): < 4.00
8 | CCNC(=O)Cn1nc(-c2ccc(NC3CCOCC3)nc2)ccc1=O [Compound I-45, N-ethyl-2-(6-oxo-3-(6-((tetrahydro-2H-pyran-4-pyran-4-yl)amino)pyridin-3-yl)pyridazin-1(6H)-yl)acetamide] |  |  | < 4.00 | < 4.00 | 
9 | CCNC(=O)Cn1nc(-c2ccc(N(C)C34CC(C3)C4)nc2)ccc1=O [Compound I-64, 2-(3-(6-(bicyclo[1.1.1]pentan-1-yl(methyl)amino)pyridin-3-yl)-6-oxopyridazin-1(6H)-yl)-N-ethylacetamide] |  |  | > 5.00 | 4.00 to 5.00 | 

Further lines, with some results ahead:

Row | pIC50 ([1]; Table 4C) | pIC50 ([2]; Table 5C) | pIC50 ([1]; Table 4A) | pIC50 ([2]; Table 5A) | Molecule | further results
10 | > 5.00 | < 4.00 |  |  | COc1ccc(-c2ccc(=O)n(CC(=O)NCCC3=CCCCC3)n2)cc1 [IIIb-14, N-(2-(cyclohex-1-en-1-yl)ethyl)-2-(3-(4-methoxyphenyl)-6-oxopyridazin-1(6H)-yl)acetamide] | 
11 | < 4.00 | < 4.00 |  |  | COc1ccc(-c2ccc(=O)n(CC(=O)NCc3ccc(OC)c(OC)c3)n2)cc1 [IIIb-49, N-(3,4-dimethoxybenzyl)-2-(3-(4-methoxyphenyl)-6-oxopyridazin-1(6H)-yl)acetamide] | 
12 | 4.00 to 5.00 | < 4.00 |  |  | C[C@@H](NC(=O)Cn1nc(-c2ccc3c(c2)OCCCO3)ccc1=O)c1ccc(F)cc1 [IIIb-26, (R)-2-(3-(3,4-dihydro-2H-benzo[b][1,4]dioxepin-7-yl)-6-oxopyridazin-1(6H)-yl)-N-(1-(4-fluorophenyl)ethyl)acetamide] | 
13 | > 5.00 | < 4.00 |  |  | COc1ccc(-c2ccc(=O)n(CC(=O)Nc3cccc4[nH]ccc34)n2)cc1 [IIIb-3, N-(1H-indol-4-yl)-2-(3-(4-methoxyphenyl)-6-oxopyridazin-1(6H)-yl)acetamide] | 
14 | > 5.00 | < 4.00 |  |  | O=C(Cn1nc(-c2ccccc2)ccc1=O)NC1(c2ccccc2)CCC1 [IIIc-51, 2-(6-oxo-3-phenylpyridazin-1(6H)-yl)-N-(1-phenylcyclobutyl)acetamide] | 
15 | 4.00 to 5.00 | < 4.00 |  |  | COc1ccccc1NC(=O)Cn1nc(-c2ccccc2)ccc1=O [IIIc-58, N-(2-methoxyphenyl)-2-(6-oxo-3-phenylpyridazin-1(6H)-yl)acetamide] | 
